Results: patent US9265253B2, “Use of macrocyclic picolinamides as fungicides” (DOW AGROSCIENCES LLC, priority 2013, dated 2016)
Where two headings read alike, the source gives them in different places.

Experiments:
Type in all cases: in vivo
[1] = tested on: Mycosphaerella graminicola; Anamorph: Septoria tritici; assay: Leaf Blotch of Wheat (SEPTTR) disease control; settings: Zymoseptoria tritici; for pest or weed control at 100 ppm: rate 100 ppm; for pest or weed control at 121.5 g/ha: rate 121.5 g/H
Summary of the method: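 Protective or curative format: Septoria tritici inoculation either preceded or followed fungicide application to first-leaf Yuma wheat. Severity scored 0–100%; control expressed versus untreated.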

[2] = tested on: Puccinia triticina; Synonym: Puccinia recondite f. Sp. Tritici; assay: Wheat Brown Rust (PUCCRT) disease control; settings: Puccinia triticina, topical; for pest or weed control at 100 ppm: rate 100 ppm; for pest or weed control at 121.5 g/ha: rate 121.5 g/H
Summary of the method: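 Brown rust on first-leaf Yuma wheat: spore inoculation before or after spray application (acetone/Triton X-100 solution, or EC with Trycol in track spray), overnight 100% RH at 22 °C, disease developed at 24 °C. Severity scored 0–100% and converted to percent control against untreated.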

[3] = tested on: Venturia inaequalis; assay: Apple Scab (VENTIN) disease control; settings: Venturia inaequalis, topical, 24 h, 1 Day Protectant, read-out: Disease Control VENTIN 1 DP
Summary of the method: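 McIntosh apple seedlings with two expanding young leaves sprayed to run-off with acetone/water fungicide solutions (110 ppm Triton X-100 in water). Inoculated with Venturia inaequalis spores 24 hr post-spray, 48 hr dew chamber at 22° C, 100% RH, then greenhouse at 20° C. Severity scored 0-100%; control relative to untreated plants.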

[4] = tested on: Erysiphe cichoracearum; assay: Powdery Mildew of Cucumber (ERYSCI) disease control; settings: Golovinomyces cichoracearum, topical, 24 h, 1 Day Protectant, read-out: Disease Control ERYSCI 1 DP
Summary of the method: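 Cucumber seedlings aged 12–14 days were sprayed to run-off with compound in acetone/water containing 110 ppm Triton X-100, then inoculated with spore suspension 24 h later. Plants were held at 20 °C until disease was fully expressed. Disease control was derived from percent severity on treated versus untreated leaves.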

[5] = 24 h, 1 Day Protectant, read-out: SEPTTR 1 DP disease control
[6] = 72 h, 3 Day Curative, read-out: SEPTTR 3 DC disease control
[7] = 24 h, 1 Day Protectant, read-out: PUCCRT 1 DP disease control
[8] = 72 h, 3 Day Curative, read-out: PUCCRT 3 DC disease control

CCCO[C@@H]1[C@@H](CCC(C)C)CCC[C@H](NC(=O)c2nccc(OC)c2OCOC(=O)COCC)C(=O)O[C@H]1C [Compound F161]
80 to 100%: pest or weed control at 100 ppm [1, 5] | pest or weed control at 121.5 g/ha [1, 5] | pest or weed control at 100 ppm [1, 6] | pest or weed control at 121.5 g/ha [1, 6] | pest or weed control at 100 ppm [2, 7] | pest or weed control at 121.5 g/ha [2, 7] | pest or weed control at 100 ppm [2, 8] | pest or weed control at 121.5 g/ha [2, 8] | pest or weed control at 100 ppm [3] | pest or weed control at 100 ppm [4]
